The text below walks through data of ChEMBL document CHEMBL1154113, “Synthesis, cannabinoid receptor affinity, molecular modeling studies and in vivo pharmacological evaluation of new substituted 1-aryl-5-(1H-pyrrol-1-yl)-1H-pyrazole-3-carboxamides. 2. Effect of the 3-carboxamide substituent on the affinity and selectivity profile” (Bioorg Med Chem, 2009).

pKi: −log10 of the molar value.

One experiment concerns the target Cannabinoid receptor 1 (Homo sapiens, UniProt P21554). Kind of experiment: biochemical. Format: cell-based, HEK293.
For another experiment, the target named is Cannabinoid receptor 2 (Homo sapiens, UniProt P34972). The experiment in a line: Displacement of [3H]CP-55940 from human recombinant CB2 receptor expressed in HEK cells. Format: cell-based, HEK293. For orientation: In a radioligand displacement assay an active substance lowers the binding of a labelled ligand.
Chain of Cannabinoid receptor 2 (P34972 whole entry): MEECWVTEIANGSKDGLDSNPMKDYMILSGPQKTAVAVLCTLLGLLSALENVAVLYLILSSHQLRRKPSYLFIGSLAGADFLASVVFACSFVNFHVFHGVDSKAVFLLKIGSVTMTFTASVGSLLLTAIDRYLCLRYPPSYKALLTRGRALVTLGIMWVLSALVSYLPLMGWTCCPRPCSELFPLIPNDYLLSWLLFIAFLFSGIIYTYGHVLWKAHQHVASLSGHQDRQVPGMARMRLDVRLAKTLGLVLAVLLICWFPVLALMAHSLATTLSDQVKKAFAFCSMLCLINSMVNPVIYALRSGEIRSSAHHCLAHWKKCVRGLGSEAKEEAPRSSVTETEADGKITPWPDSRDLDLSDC
The species entered for the next experiment is Homo sapiens. Kind of experiment: Selectivity index, ratio of Ki for human recombinant CB2 receptor to Ki for human recombinant CB1 receptor.

Chain of Cannabinoid receptor 1 (P21554 whole entry): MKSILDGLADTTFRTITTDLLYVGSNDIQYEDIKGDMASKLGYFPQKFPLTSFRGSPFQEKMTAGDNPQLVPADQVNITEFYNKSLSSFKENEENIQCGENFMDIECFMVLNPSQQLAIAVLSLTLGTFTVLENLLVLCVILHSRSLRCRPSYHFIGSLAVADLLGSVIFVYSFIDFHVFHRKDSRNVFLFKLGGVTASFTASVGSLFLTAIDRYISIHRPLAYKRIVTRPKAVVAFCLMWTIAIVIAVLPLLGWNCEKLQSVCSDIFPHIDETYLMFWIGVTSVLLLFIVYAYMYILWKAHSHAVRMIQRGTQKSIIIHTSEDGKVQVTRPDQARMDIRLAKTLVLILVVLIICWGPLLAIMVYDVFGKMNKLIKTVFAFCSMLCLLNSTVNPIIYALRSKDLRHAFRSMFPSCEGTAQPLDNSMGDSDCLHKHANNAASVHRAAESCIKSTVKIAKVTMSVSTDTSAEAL
Description for Cannabinoid receptor 1: Displacement of [3H]CP-55940 from human recombinant CB1 receptor expressed in HEK cells

One may read the pKi as −log10 of the Ki, conventionally taken in molar units. Consider `Cc1c(C(=O)NCc2ccc(Cl)cc2)nn(-c2ccc(Cl)cc2Cl)c1-n1cccc1`, for which the pKi was 6.85 on Cannabinoid receptor 1 and 6.03 at Cannabinoid receptor 2. Further, the Ratio Ki in the experiment listed under Homo sapiens was 6.71.
Take `Cc1c(C(=O)NCCc2ccc(Cl)cc2)nn(-c2ccc(Cl)cc2Cl)c1-n1c(C)ccc1C`: the values for the pKi at Cannabinoid receptor 1 and on Cannabinoid receptor 2 were 7.52 and < 5.40, respectively. Further, in the experiment filed under Homo sapiens, the Ratio Ki is > 131.
For the compound `Cc1c(C(=O)NCc2ccc(Cl)cc2)nn(-c2ccc(F)cc2F)c1-n1cccc1`, the pKi at Cannabinoid receptor 1 is 6.47; at Cannabinoid receptor 2, 5.47. For the same compound, in the experiment filed under Homo sapiens, the Ratio Ki was 10.
For `Cc1c(C(=O)NCCc2ccc(Cl)cc2)nn(-c2ccc(F)cc2F)c1-n1cccc1` the same measures were 7.10, < 5.40 and > 49.2.
For `Cc1c(C(=O)NC2CCCCCC2)nn(-c2ccc(F)cc2F)c1-n1c(C)ccc1C` the same measures were 7.25, 6.96 and 1.96.
Regarding `COc1ccc(CCNC(=O)c2nn(-c3ccc(Cl)cc3Cl)c(-n3cccc3)c2C)cc1Cl`, the pKi at Cannabinoid receptor 1 is 6.43; at Cannabinoid receptor 2 it was 5.54. The Ratio Ki in the experiment listed under Homo sapiens worked out at 7.84.
Turning to `COc1cc(CNC(=O)c2nn(-c3ccc(Cl)cc3Cl)c(-n3c(C)ccc3C)c2C)c(Br)c(OC)c1OC`, the negative-log Ki (pKi) on Cannabinoid receptor 1 was 6.84; on Cannabinoid receptor 2, 6.26. For the same compound, the Ratio Ki in the experiment filed under Homo sapiens turned out to be 3.84.
As to `Cc1c(C(=O)NC2CCCC2)nn(-c2ccc(F)cc2F)c1-n1cccc1`, the pKi was 5.62 at Cannabinoid receptor 1 and 5.96 on Cannabinoid receptor 2. Besides, in the experiment listed under Homo sapiens, the Ratio Ki was determined as 0.46.
For `Cc1c(C(=O)NCc2ccc(Cl)cc2)nn(-c2ccc(Cl)c(Cl)c2)c1-n1c(C)ccc1C` the same measures were 7.00, 6.10 and 7.9.
For `COc1cc(CNC(=O)c2nn(-c3ccc(F)cc3F)c(-n3c(C)ccc3C)c2C)c(Br)c(OC)c1OC` the same measures were 6.78, 6.43 and 2.26.
As for `Cc1c(C(=O)Nc2ccc(Cl)cc2)nn(-c2ccc(Cl)c(Cl)c2)c1-n1c(C)ccc1C`, the pKi on Cannabinoid receptor 1 was < 5.55; on Cannabinoid receptor 2, < 5.40.
For the compound `Cc1c(C(=O)NCCc2ccc(Cl)c(Cl)c2)nn(-c2ccc(F)cc2F)c1-n1c(C)ccc1C`, the pKi was 7.27 at Cannabinoid receptor 1 and < 5.40 at Cannabinoid receptor 2. For the same compound, the Ratio Ki in the experiment listed under Homo sapiens was > 73.
For `Cc1c(C(=O)NC2CCCC2)nn(-c2ccc(Cl)c(Cl)c2)c1-n1c(C)ccc1C` the same measures were 7.44, 7.92 and 0.33.
For `Cc1c(C(=O)NC2CCCC2)nn(-c2ccc(F)cc2F)c1-n1c(C)ccc1C` the same measures were 6.08, 6.05 and 1.07.
Turning to `Cc1c(C(=O)Nc2ccc(Cl)cc2)nn(-c2ccc(Cl)c(Cl)c2)c1-n1cccc1`, the negative logarithm of the Ki (pKi) on Cannabinoid receptor 1 was 5.89; at Cannabinoid receptor 2, 6.10. For the same compound, the Ratio Ki in the experiment listed under Homo sapiens stood at 0.61.
For `Cc1c(C(=O)NC2CCCC2)nn(-c2ccc(Cl)cc2Cl)c1-n1c(C)ccc1C` the same measures were 6.82, 6.51 and 2.07.
Turning to `Cc1c(C(=O)NCCc2ccc(Cl)cc2Cl)nn(-c2ccc(F)cc2F)c1-n1cccc1`, the pKi is 6.42 on Cannabinoid receptor 1 and 6.18 on Cannabinoid receptor 2. Also, in the experiment filed under Homo sapiens, the Ratio Ki was determined as 1.75.
For `Cc1c(C(=O)NCCc2ccc(Cl)c(Cl)c2)nn(-c2ccc(F)cc2F)c1-n1cccc1`, the pKi at Cannabinoid receptor 1 is 6.51; on Cannabinoid receptor 2, 5.89. For the same compound, in the experiment filed under Homo sapiens, the Ratio Ki was 4.16.
On to `Cc1c(C(=O)Nc2ccc(Cl)cc2)nn(-c2ccc(F)cc2F)c1-n1c(C)ccc1C`, for which the pKi at Cannabinoid receptor 1 is 6.25; at Cannabinoid receptor 2 it was < 5.40. In addition, the Ratio Ki in the experiment listed under Homo sapiens was > 7.04.
Turning to `Cc1c(C(=O)Nc2ccc(Cl)cc2)nn(-c2ccc(Cl)cc2Cl)c1-n1cccc1`, the pKi at Cannabinoid receptor 1 was 6.92; at Cannabinoid receptor 2, 7.10. Further, the Ratio Ki in the experiment filed under Homo sapiens is 0.67.
For `Cc1c(C(=O)NC23CC4CC(CC(C4)C2)C3)nn(-c2ccc(Cl)c(Cl)c2)c1-n1cccc1`, the negative logarithm of the Ki (pKi) on Cannabinoid receptor 1 is 7.51; on Cannabinoid receptor 2, 7.70. The Ratio Ki in the experiment filed under Homo sapiens is 0.65.
Consider `Cc1c(C(=O)NCc2ccc(Cl)cc2)nn(-c2ccc(F)cc2F)c1-n1c(C)ccc1C`, for which the figures for the pKi on Cannabinoid receptor 1 and at Cannabinoid receptor 2 were 7.25 and < 5.40, respectively. In the experiment filed under Homo sapiens, the Ratio Ki is > 70.4.
For `Cc1c(C(=O)NCc2ccc(Cl)cc2)nn(-c2ccc(Cl)cc2Cl)c1-n1c(C)ccc1C` the same measures were 7.05, < 5.40 and > 43.8.
Regarding `Cc1c(C(=O)NCCc2ccc(Cl)c(Cl)c2)nn(-c2ccc(Cl)cc2Cl)c1-n1cccc1`, the pKi at Cannabinoid receptor 1 is 6.80; at Cannabinoid receptor 2, < 5.40. Also, the Ratio Ki in the experiment listed under Homo sapiens was > 25.1.
Regarding `Cc1c(C(=O)NC2CCCCC2)nn(-c2ccc(Cl)c(Cl)c2)c1-n1cccc1`, the Ratio Ki in the experiment listed under Homo sapiens is 0.3.
For `Cc1c(C(=O)NCCc2ccc(Cl)cc2)nn(-c2ccc(Cl)c(Cl)c2)c1-n1cccc1`, the results for the pKi on Cannabinoid receptor 1 and on Cannabinoid receptor 2 were 6.62 and 5.92, respectively. For the same compound, the Ratio Ki in the experiment listed under Homo sapiens stood at 5.
For `Cc1c(C(=O)NCCc2ccc(Cl)c(Cl)c2)nn(-c2ccc(Cl)cc2Cl)c1-n1c(C)ccc1C` the same measures were 6.93, < 5.40 and > 33.4.
For `Cc1c(C(=O)NC2CCCC2)nn(-c2ccc(Cl)c(Cl)c2)c1-n1cccc1` the same measures were 7.30, 7.92 and 0.24.
For `Cc1c(C(=O)NC2CCCC2)nn(-c2ccc(Cl)cc2Cl)c1-n1cccc1` the same measures were 7.08, 6.77 and 2.02.
As for `Cc1c(C(=O)NC(C)c2ccccc2)nn(-c2ccc(Cl)c(Cl)c2)c1-n1c(C)ccc1C` (centres undefined), the pKi on Cannabinoid receptor 1 was 7.10; at Cannabinoid receptor 2 it was 8.24. Also, the Ratio Ki in the experiment listed under Homo sapiens is 0.071.
For `COc1ccc(CCNC(=O)c2nn(-c3ccc(Cl)cc3Cl)c(-n3c(C)ccc3C)c2C)cc1Cl` the same measures were 6.95, 5.46 and 31.1.
Regarding `Cc1c(C(=O)NCCc2ccc(Cl)cc2)nn(-c2ccc(Cl)c(Cl)c2)c1-n1c(C)ccc1C`, the pKi at Cannabinoid receptor 1 was 6.41; on Cannabinoid receptor 2, < 5.40. For the same compound, in the experiment filed under Homo sapiens, the Ratio Ki is > 10.1.
For `COc1ccc(CCNC(=O)c2nn(-c3ccc(F)cc3F)c(-n3cccc3)c2C)cc1Cl` the same measures were 6.02, 5.71 and 2.05.
For `Cc1c(C(=O)NC2CCCCCC2)nn(-c2ccc(Cl)c(Cl)c2)c1-n1cccc1` the same measures were 8.25, 8.89 and 0.23.
Turning to `Cc1c(C(=O)NC2CCCCCC2)nn(-c2ccc(Cl)cc2Cl)c1-n1c(C)ccc1C`, the negative-log Ki (pKi) is 7.25 at Cannabinoid receptor 1 and 7.10 at Cannabinoid receptor 2. Further, in the experiment listed under Homo sapiens, the Ratio Ki was 1.43.
For `Cc1c(C(=O)NCCc2ccc(Cl)cc2Cl)nn(-c2ccc(Cl)cc2Cl)c1-n1c(C)ccc1C` the same measures were 6.81, < 5.40 and > 25.2.
Regarding `Cc1c(C(=O)NC2CCCCCC2)nn(-c2ccc(Cl)cc2Cl)c1-n1cccc1`, the negative logarithm of the Ki (pKi) on Cannabinoid receptor 1 and at Cannabinoid receptor 2 was 7.70 throughout. For the same compound, the Ratio Ki in the experiment listed under Homo sapiens worked out at 1.
Consider `Cc1c(C(=O)NCCc2ccc(Cl)cc2)nn(-c2ccc(Cl)cc2Cl)c1-n1cccc1`, for which the results for the negative logarithm of the Ki (pKi) on Cannabinoid receptor 1 and on Cannabinoid receptor 2 were 7.15 and < 5.40, respectively. The Ratio Ki in the experiment listed under Homo sapiens was > 56.2.
For `COc1ccc(CCNC(=O)c2nn(-c3ccc(F)cc3F)c(-n3c(C)ccc3C)c2C)cc1Cl` the same measures were 7.00, < 5.40 and > 39.8.
`Cc1c(C(=O)NC(c2ccccc2)c2ccc(Cl)cc2)nn(-c2ccc(Cl)c(Cl)c2)c1-n1c(C)ccc1C` (centres undefined): the pKi at Cannabinoid receptor 1 was < 5.55; on Cannabinoid receptor 2 it was < 5.40.
Turning to `Cc1c(C(=O)NC2CCCCCC2)nn(-c2ccc(F)cc2F)c1-n1cccc1`, the pKi at Cannabinoid receptor 1 was 6.25; on Cannabinoid receptor 2, 6.70. For the same compound, the Ratio Ki in the experiment filed under Homo sapiens worked out at 0.36.
For `Cc1c(C(=O)NC23CC4CC(CC(C4)C2)C3)nn(-c2ccc(Cl)c(Cl)c2)c1-n1c(C)ccc1C` the same measures were 8.25, 7.92 and 2.14.
For `Cc1c(C(=O)Nc2ccc(Cl)cc2)nn(-c2ccc(Cl)cc2Cl)c1-n1c(C)ccc1C` the same measures were 7.02, < 5.40 and > 41.
Turning to `Cc1c(C(=O)N[C@H](C)C2CCCCC2)nn(-c2ccc(Cl)c(Cl)c2)c1-n1cccc1`, the pKi at Cannabinoid receptor 1 was 7.85; at Cannabinoid receptor 2 it was 8.80. The Ratio Ki in the experiment filed under Homo sapiens amounted to 0.11.
For `Cc1c(C(=O)NC2CCCCCC2)nn(-c2ccc(Cl)c(Cl)c2)c1-n1c(C)ccc1C` the same measures were 7.92, 8.38 and 0.35.
`Cc1c(C(=O)N[C@@H](C)C2CCCCC2)nn(-c2ccc(Cl)c(Cl)c2)c1-n1cccc1`: the results for the negative-log Ki (pKi) on Cannabinoid receptor 1 and at Cannabinoid receptor 2 were 8.47 and 8.62, respectively. Moreover, in the experiment listed under Homo sapiens, the Ratio Ki is 0.71.
As for `COc1cc(CNC(=O)c2nn(-c3ccc(Cl)cc3Cl)c(-n3cccc3)c2C)c(Br)c(OC)c1OC`, the pKi is 6.64 at Cannabinoid receptor 1 and 6.22 at Cannabinoid receptor 2. In addition, in the experiment filed under Homo sapiens, the Ratio Ki stood at 2.68.
`Cc1c(C(=O)Nc2ccc(Cl)cc2)nn(-c2ccc(F)cc2F)c1-n1cccc1`: the figures for the pKi on Cannabinoid receptor 1 and at Cannabinoid receptor 2 were 5.68 and < 5.40, respectively. Further, the Ratio Ki in the experiment listed under Homo sapiens amounted to 3.76.
For `Cc1c(C(=O)NCc2ccc(Cl)cc2)nn(-c2ccc(Cl)c(Cl)c2)c1-n1cccc1` the same measures were 7.15, 7.00 and 1.43.
In the case of `Cc1c(C(=O)NCCc2ccc(Cl)cc2Cl)nn(-c2ccc(Cl)cc2Cl)c1-n1cccc1`, the pKi at Cannabinoid receptor 1 was 6.66; on Cannabinoid receptor 2, < 5.40. Moreover, in the experiment filed under Homo sapiens, the Ratio Ki was > 18.1.
For `Cc1c(C(=O)NCCc2ccc(Cl)cc2Cl)nn(-c2ccc(F)cc2F)c1-n1c(C)ccc1C` the same measures were 7.39, 6.14 and 17.6.
